Marks after values point to notes of the source that are not given here.
Assays:
cytotoxic T cells = assay: Development of cytotoxic T cells in 2237-cell immunized mice; type: in vivo
[1] = tested on: 2237 tumor cells (syngeneic fibrosarcoma); assay: Immunization with radiation killed 2237 tumor cells plus adjuvant, then footpad challenge with live 2237 cells; tumor volume by calipers; type: in vivo, C3H/HeN mice
Excerpt: C3H/HeN mice were immunized with 1×10^5 radiation killed 2237 tumor cells. The 2237 cell line is a moderately antigenic syngeneic fibrosarcoma obtained from s.c. growing tumors by collagenase dissociation. The donor tumor cells for use in tumor vaccine were irradiated with 10,000 R of gamma irradiation. Irradiation ultimately kills the cells but they are not immediately killed, indeed the cells may be able to undergo one or two additional divisions before a sufficient accumulation of chromosomal breaks or other abnormalities is obtained to result in a lethal event. Thus, irradiation results in a metabolically viable but noncontinuously proliferating cell. The cells were admixed with HBSS alone (serving as a non-adjuvant killed cell control vaccine), or with HBSS containing various doses of homogeneous recombinant Val-terminal human TNF-α alone or TNF-α plus IFN-γ. The mixture was injected intradermally into the posterior ventral region at five sites. Controls also included TNF without tumor cells, injections of HBSS alone (without killed 2237 cells), and FK565, a dimuramyl dipeptide derivative representing a known adjuvant as a positive control. Primary immunization with 2237 cells and TNF-α occurred on day 1; TNF-α was administered intraperitoneally alone on days 2 and 3. Secondary intradermal immunization occurred on day 11 with the same number of killed cells. When IFN-γ was used with TNF-α, IFN-γ administrations accompanied the TNF-α administration and further, IFN-γ, TNF-α or IFN-γ plus TNF-α were administered intraperitoneally on days 12 and 13. Five days after the second immunization the animals' footpads were injected with live 2237 cells. 48, 74 and 81 days later the tumors that had developed were measured by calipers in two dimensions. Numerous control animals had died by the last measurement day. […] Tumor volume was determined using the formula for a prolated sphere using the two dimensions previously measured. The formula is tumor volume (cm^3) equals ½ A×B^2; where A equals the larger tumor diameter and B equals the smaller tumor diameter.

[2] = tested on: bovine serum albumin (BSA); assay: Serum antibody (IgG) against BSA by Elisa after BSA immunization; type: in vivo, C3H/HeN mice; settings: for Production of antibody (IgG) against BSA: BSA 500 μg i.p. day 0 and second injection 100 μg, adjuvant at various doses, bled three days later, Elisa
Method: C3H/HeN mice were given an i.p. injection of bovine serum albumin using a suboptimal vaccine dose (500 μg/animal), which was administered by i.p. injection on day 0. Various doses of TNF-α, as an adjuvant, were administered 48 hours following a second injection of BSA at 100 μg/animal. The mice were bled three days later and the serum antibody levels as IgG were determined using routine Elisa techniques. The i.v. injection of maleic divinyl ether with an average molecular weight of 20,000 daltons was used as a positive control.

2237 cells = assay: Direct cytotoxic effect on 2237 cells; type: cell-based
Excerpt: This is not especially relevant in the context of the foregoing experiments because the tumor cells were not injected into the animals until 2 days after they had last been exposed to cytokines.

[3] = 0.1 μg per animal with killed 2237 cell vaccine
[4] = 1 μg per animal with killed 2237 cell vaccine
[5] = 5 μg per animal with killed 2237 cell vaccine
[6] = 5 × 10^4 units per animal with killed 2237 cell vaccine
[7] = 500 μg per animal with killed 2237 cell vaccine

Molecule: TNF-α
- Stimulation of the development of cytotoxic T cells (cytotoxic T cells): able to stimulate the development of cytotoxic T cells
- Tumor Volume Day 48 [1, 3]: 0 cm^3
- Tumor Volume Day 74 [1, 3]: 0 cm^3
- Tumor Volume Day 81 [1, 3]: 0 cm^3
- Fate of the tumor that had developed in one animal ([1]; 1 μg per animal group, footnote to Day 48 value): *The tumor that had developed in one animal in this group regressed before the end of the study.
- Tumor Volume Day 48 [1, 4]: 0.157* cm^3
- Tumor Volume Day 74 [1, 4]: 0 cm^3
- Tumor Volume Day 81 [1, 4]: 0 cm^3
- Tumor Volume Day 48 [1, 5]: 0 cm^3
- Tumor Volume Day 74 [1, 5]: 0 cm^3
- Tumor Volume Day 81 [1, 5]: 0 cm^3
- Production of antibody (IgG) against BSA [2]: in a dose-dependent manner augmented
- Serum antibody activity after injection of TNF alone ([2]; control, TNF alone): did not induce serum antibody activity
- Direct cytotoxic effect on 2237 cells (2237 cells): Neither TNF-α nor IFN-γ have any significant direct cytotoxic effect

Molecule: IFN-γ: IFN-γ (γ-interferon) lymphokine given with or without TNF-α
- Tumor Volume Day 48 [1, 6]: 0 cm^3
- Tumor Volume Day 74 [1, 6]: 0 cm^3
- Tumor Volume Day 81 [1, 6]: 0 cm^3

Molecule: maleic divinyl ether [MVE-2, reference compound]
- Production of antibody (IgG) against BSA [2]: in a dose-dependent manner augmented

Molecule: CCCCCCC(=O)N[C@H](CCC(=O)N[C@@H](CCC[C@@H](N)C(=O)O)C(=O)N[C@H](C)C(=O)O)C(=O)O [FK565, reference compound]
- Tumor Volume Day 48 [1, 7]: 0 cm^3
- Tumor Volume Day 74 [1, 7]: 0 cm^3
- Tumor Volume Day 81 [1, 7]: 0 cm^3

B1: IFN-γ: IFN-γ (γ-interferon) lymphokine given with or without TNF-α (protein, UniProt P01579 24-161, looked up)
Interferon gamma: QDPYVKEAENLKKYFNAGHSDVADNGTLFLGILKNWKEESDRKIMQSQIVSFYFKLFKNFKDDQSIQKSVETIKEDMNVKFFNSNKKKRDDFEKLTNYSVTDLNVQRKAIHELIQVMAELSPAAKTGKRKRSQMLFRG
- Direct cytotoxic effect on 2237 cells (2237 cells): Neither TNF-α nor IFN-γ have any significant direct cytotoxic effect
